{"source": "patent EP4635950A1", "about": "“NOVEL CRYSTAL FORM OF GLP-1 RECEPTOR AGONIST, METHOD FOR PREPARING SAME, PHARMACEUTICAL COMPOSITION THEREOF, AND USE THEREOF” (Hangzhou Zhongmeihuadong Pharmaceutical Co., Ltd., priority 2022, dated 2024)", "key": {"[1]": {"assay": "Equilibrium solubility, 24 hours at 37°C in 4 media, with XRPD of residual solid", "assay_type": "physicochemical", "conditions": "for solubility at 24 h: 37 °C, thermodynamic from solid, read-out: Solubility after 24 h; for Crystal Form: XRPD", "method": "After 24 hours, samples were taken and centrifuged for separation. The obtained solids were tested by XRPD, and the supernatants were filtered for solubility testing."}, "[2]": {"assay": "Hygroscopicity by dynamic vapor sorption (DVS) at 25°C", "assay_type": "physicochemical"}, "[3]": {"assay": "Solid-state stability under long-term and accelerated conditions (HPLC purity, crystal form)", "assay_type": "physicochemical", "conditions": "for Purity (% Area) / purity decrease: 10 days", "excerpt": "[table] […] Table E-3: Results of Solid-State Stability Determination"}, "[4]": {"assay": "High-temperature stability at 60°C (HPLC purity, crystal form)", "assay_type": "physicochemical", "conditions": "for Purity (% Area) / purity decrease: 60°C", "excerpt": "[table] […] Table E-4: Results of High-Temperature Stability Determination"}, "[5]": {"assay": "High-humidity stability at 90% RH (HPLC purity, crystal form)", "assay_type": "physicochemical", "conditions": "for Purity (% Area) / purity decrease: 90% RH", "excerpt": "[table] […] Table E-5: Results of High-Humidity Stability Determination"}, "[6]": {"assay": "Pressure stability at 1000 Mpa for 5 minutes (HPLC purity, crystal form)", "assay_type": "physicochemical", "excerpt": "[table] […] Table E-6: Results of Pressure Stability Determination"}, "[7]": {"assay": "Crystal form stability on drying or sealed storage", "assay_type": "physicochemical", "conditions": "dried at 50°C for 3 hours", "excerpt": "The 4 metastable crystal forms described in Example 4 had lower crystal form stability than each crystal form described in Example 3."}, "[8]": {"assay": "Suspension competition test of Crystal Form A and Crystal Form G", "assay_type": "physicochemical", "conditions": "Crystal Form A and Crystal Form G in EtOH and a mixture of MeOH and water, room temperature and 50°C"}, "Human GLP-1R": {"molecular_target": "T1, Human GLP-1R (Homo sapiens, UniProt P43220)", "T1 construct": "expressed in transfected cells; host or cells: 293A cells stably expressing GLP-1R-GFP", "T1 sequence (P43220 24-463)": "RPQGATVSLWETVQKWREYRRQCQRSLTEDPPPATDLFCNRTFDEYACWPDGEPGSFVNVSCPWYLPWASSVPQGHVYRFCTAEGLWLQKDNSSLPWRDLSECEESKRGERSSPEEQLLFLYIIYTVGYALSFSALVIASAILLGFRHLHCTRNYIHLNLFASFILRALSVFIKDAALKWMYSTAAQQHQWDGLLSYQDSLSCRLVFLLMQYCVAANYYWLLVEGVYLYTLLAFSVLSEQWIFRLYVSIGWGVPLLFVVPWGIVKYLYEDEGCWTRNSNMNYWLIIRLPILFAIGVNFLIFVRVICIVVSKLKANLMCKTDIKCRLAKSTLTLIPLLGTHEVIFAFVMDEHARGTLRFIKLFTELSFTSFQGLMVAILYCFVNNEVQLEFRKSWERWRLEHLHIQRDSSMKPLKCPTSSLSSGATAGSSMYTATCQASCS", "assay": "GLP-1R agonistic activity, HTRF cAMP assay in 293A GFP-GLP-1R cells", "assay_type": "cell-based", "conditions": "cAMP pathway", "excerpt": "The method was a competitive immunoassay."}}, "note": "Read-outs that look alike come from different tables or passages of the source."}
{"compound": "O=C(O)c1ccc2nc(CN3CCC(c4cccc(OCc5ccc(C6COC6)cc5F)n4)CC3)n(C[C@@H]3CCO3)c2c1", "note": "[Crystal Form A, (S)-2-((4-(6-((2-fluoro-4-(oxetan-3-yl)benzyl)oxy)pyridin-2-yl)piperidin-1-yl)methyl)-1-(oxetan-2-ylmethyl)-1H-benzo[d]imidazole-6-carboxylic acid]", "values": [{"measurement": "Whether the Crystal Form Changed", "setting": "[1]; 24 h in FaSSGF", "result": "YES"}, {"measurement": "Solubility after 24 h", "setting": "[1]; FaSSGF", "result": 200, "unit": "µg/mL"}, {"measurement": "solubility at 24 h", "setting": "[1]; FaSSIF (fasted-state simulated intestinal fluid), fassif, FaSSIF", "result": 50, "unit": "µg/mL"}, {"measurement": "solubility at 24 h", "setting": "[1]; FeSSIF (fed-state simulated intestinal fluid), fessif, FeSSIF", "result": 320, "unit": "µg/mL"}, {"measurement": "solubility at 24 h", "setting": "[1]; purified water, water, H2O", "result": "< 100", "unit": "µg/mL"}, {"measurement": "Crystal Form", "setting": "[1]; solid after 24 h in FaSSGF", "result": "a hydrochloride salt was formed"}, {"measurement": "Crystal Form", "setting": "[1]; solid after 24 h in FaSSIF", "result": "Crystal Form A"}, {"measurement": "Crystal Form", "setting": "[1]; solid after 24 h in FeSSIF", "result": "Crystal Form A"}, {"measurement": "Crystal Form", "setting": "[1]; solid after 24 h in H2O", "result": "Crystal Form A"}, {"measurement": "Sample Weight Change at 80% RH (%)", "setting": "[2]", "result": 0.89, "unit": "%"}, {"measurement": "Purity (% Area)", "setting": "[3]; 25°C/60%RH", "result": 97.50, "unit": "% Area"}, {"measurement": "Purity (% Area)", "setting": "[3]; 40°C/75%RH", "result": 97.33, "unit": "% Area"}, {"measurement": "purity decrease", "setting": "[3]; accelerated conditions (40°C/75% RH)", "result": "about 0.8%"}, {"measurement": "crystal form change", "setting": "[3]; before and after testing, long-term and accelerated conditions", "result": "no crystal form change was observed"}, {"measurement": "Initial Purity (% Area)", "setting": "[3]; initial, before storage", "result": 98.11, "unit": "% Area"}, {"measurement": "purity decrease", "setting": "[3]; long-term conditions (25°C/60% RH)", "result": "about 0.6%"}, {"measurement": "Purity (% Area)", "setting": "[4]; 1 day", "result": 98.00, "unit": "% Area"}, {"measurement": "purity decrease", "setting": "[4]; 1 day", "result": "about 0.1%"}, {"measurement": "Purity (% Area)", "setting": "[4]; 10 days", "result": 96.98, "unit": "% Area"}, {"measurement": "purity decrease", "setting": "[4]; 10 days", "result": "about 1.1%"}, {"measurement": "Initial Purity (% Area)", "setting": "[4]; initial, before storage", "result": 98.11, "unit": "% Area"}, {"measurement": "Purity (% Area)", "setting": "[5]; 1 Day", "result": 97.77, "unit": "% Area"}, {"measurement": "purity decrease", "setting": "[5]; 1 day", "result": "about 0.3%"}, {"measurement": "Purity (% Area)", "setting": "[5]; 10 days", "result": 97.07, "unit": "% Area"}, {"measurement": "purity decrease", "setting": "[5]; 10 days", "result": "about 1.0%"}, {"measurement": "Initial Purity (% Area)", "setting": "[5]; initial, before storage", "result": 98.11, "unit": "% Area"}, {"measurement": "Purity (% Area)", "setting": "[6]; 1000 Mpa, 5 min", "result": 97.44, "unit": "% Area"}, {"measurement": "purity decrease", "setting": "[6]; 1000 Mpa, 5 min", "result": "about 0.7%"}, {"measurement": "Initial Purity (% Area)", "setting": "[6]; initial, before pressing", "result": 98.11, "unit": "% Area"}, {"measurement": "crystal form change after drying", "setting": "[7]", "result": "no crystal form change is observed"}, {"measurement": "outcome of suspension competition test", "setting": "[8]", "result": "transforms into Crystal Form G"}]}
{"compound": "O=C(O)c1ccc2nc(CN3CCC(c4cccc(OCc5ccc(C6COC6)cc5F)n4)CC3)n(C[C@@H]3CCO3)c2c1", "note": "[Compound 1, (S)-2-((4-(6-((2-fluoro-4-(oxetan-3-yl)benzyl)oxy)pyridin-2-yl)piperidin-1-yl)methyl)-1-(oxetan-2-ylmethyl)-1H-benzo[d]imidazole-6-carboxylic acid]", "values": [{"measurement": "agonistic effect on GLP-1R", "setting": "Human GLP-1R", "result": "strong agonistic effect"}]}
